Reference: patent US4698350A, “1-ethyl-6-fluoro-1,4-dihydro- 7-(2,6-dimethyl-4-pyridinyl)-4-oxo-3-quinolinecarboxylic acid and antibacterial use thereof” (Sterling Drug Inc., priority 1984, dated 1987)
In brackets after ≈: the same amount, converted by molar mass.

Columns and labels:
Assay in all cases: In vitro antibacterial MIC/MBC test
Type in all cases: cell-based
S. aureus S-234 = settings: Staphylococcus aureus, S234, S. aureus S-234; for MBC: read-out: MBC; for MIC: read-out: MIC
Description: (§1) Win 52,522 and Win 35,439 were solubilized in 0.1 ml of 0.5 N NaOH/mg of compound and diluted in sterile distilled water to 160 mcg/ml. Vancomycin and methicillin were solubilized in sterile distilled water to 1250 mcg/ml of base compound. The stock solutions were sterilized by filtration through membrane filters with a 0.45 μm pore size.
(§2) The bacterial cultures listed in Table I (hereinbelow) were grown overnight at 37° C. in MHB for all cultures except the Streptococcus strains. These were grown in BHI+10% NHS. The overnight broth cultures were adjusted to an optical density of 0.10 (650 nm, B L Spectronic 20) in sterile distilled water and subsequently diluted to 6.7×10^6 cells/ml in MHB or BHI+1% NHS.
(§3) Serial two-fold dilutions of the compound solutions were prepared in MHB (or in BHI+1% NHS for tests with Streptococci) and dispensed into 96-well microtiter trays in a volume of 0.1 ml/well using a Sandy Springs (Bellco Glass Co.) dispenser. The trays were then inoculated with 0.0015 ml of a suspension containing 6.7×10^6 cells/ml of the appropriate inoculum using a MIC-2000 inoculator (Dynatech Corp.) resulting in a final inoculum of approximately 1×10^4 cells/well or 1×10^5 cells/ml. The trays were incubated at 37° C. for 18-20 hours and the minimal inhibitory concentration (MIC), defined as the lowest concentration of compound to inhibit visible bacterial growth, was recorded.
(§4) After the MIC values were recorded, the contents in the microtiter trays were thoroughly mixed on a Bellco Mini-orbital Shaker (Bellco Glass Co.) for 3 min. at a setting of 8. A portion (0.0015 ml) from each well was then transferred via an MIC-2000 inoculator to plates containing MHA or BHI agar+10% NHS. The plates were incubated at 37° C. for 18-20 hrs. The minimal bactericidal concentration (MBC), defined as the lowest concentration of compound that prevented the formation of a recognizable colony on the agar surface, was recorded.

S. aureus 24-81 = settings: Staphylococcus aureus, 2481, S. aureus 24-81; for MBC: read-out: MBC; for MIC: read-out: MIC
Description: as §1, §2, §3, §4

S. pyogenes (89) = settings: Streptococcus pyogenes, S. pyogenes SWRI No. 89; for MBC: read-out: MBC; for MIC: read-out: MIC
Description: as §1, §2, §3, §4

S. faecalis (8043) = settings: Enterococcus faecalis, ATCC8043, S. faecalis ATCC No. 8043; for MBC: read-out: MBC; for MIC: read-out: MIC
Description: as §1, §2, §3, §4

S. aureus VA16951 = settings: Staphylococcus aureus, S. aureus VA16951; for MBC: read-out: MBC; for MIC: read-out: MIC
Description: as §1, §2, §3, §4

S. aureus 41-81 = settings: Staphylococcus aureus, 4181, S. aureus 41-81; for MBC: read-out: MBC; for MIC: read-out: MIC
Description: as §1, §2, §3, §4

S. aureus S-500 = settings: Staphylococcus aureus, S500, S. aureus S-500; for MBC: read-out: MBC; for MIC: read-out: MIC
Description: as §1, §2, §3, §4

S. aureus 39881 = settings: Staphylococcus aureus, S. aureus 39881; for MBC: read-out: MBC; for MIC: read-out: MIC
Description: as §1, §2, §3, §4

S. aureus 13-8-A = settings: Staphylococcus aureus, 138A, S. aureus 13-8-A; for MBC: read-out: MBC; for MIC: read-out: MIC
Description: as §1, §2, §3, §4

S. epidermidis (12228) = settings: Staphylococcus epidermidis, ATCC12228, S. epidermidis ATCC No. 12228; for MBC: read-out: MBC; for MIC: read-out: MIC
Description: as §1, §2, §3, §4

S. aureus Smith = settings: Staphylococcus aureus, S. aureus Smith; for MBC: read-out: MBC; for MIC: read-out: MIC
Description: as §1, §2, §3, §4

S. pneumoniae Type I = settings: Streptococcus pneumoniae, S. pneumoniae Type I; for MBC: read-out: MBC; for MIC: read-out: MIC
Description: as §1, §2, §3, §4

S. faecalis (11700) = settings: Enterococcus faecalis, ATCC11700, S. faecalis ATCC No. 11700; for MBC: read-out: MBC; for MIC: read-out: MIC
Description: as §1, §2, §3, §4

S. faecalis 4510 = settings: Enterococcus faecalis, S. faecalis 4510; for MBC: read-out: MBC; for MIC: read-out: MIC
Description: as §1, §2, §3, §4

S. aureus 4-81 = settings: Staphylococcus aureus, 481, S. aureus 4-81; for MBC: read-out: MBC; for MIC: read-out: MIC
Description: as §1, §2, §3, §4

S. epidermidis (17917) = settings: Staphylococcus epidermidis, ATCC17917, S. epidermidis ATCC No. 17917; for MBC: read-out: MBC; for MIC: read-out: MIC
Description: as §1, §2, §3, §4

S. aureus Glorgio = settings: Staphylococcus aureus, S. aureus Glorgio; for MBC: read-out: MBC; for MIC: read-out: MIC
Description: as §1, §2, §3, §4

S. aureus (25923) = settings: Staphylococcus aureus, ATCC25923, S. aureus ATCC No. 25923; for MBC: read-out: MBC; for MIC: read-out: MIC
Description: as §1, §2, §3, §4

S. aureus 34-81 = settings: Staphylococcus aureus, 3481, S. aureus 34-81; for MBC: read-out: MBC; for MIC: read-out: MIC
Description: as §1, §2, §3, §4

S. epidermidis 1-3-H = settings: Staphylococcus epidermidis, 13H, S. epidermidis 1-3-H; for MBC: read-out: MBC; for MIC: read-out: MIC
Description: as §1, §2, §3, §4

S. aureus 59-81 = settings: Staphylococcus aureus, 5981, S. aureus 59-81; for MBC: read-out: MBC; for MIC: read-out: MIC
Description: as §1, §2, §3, §4

S. aureus 10-81 = settings: Staphylococcus aureus, 1081, S. aureus 10-81; for MBC: read-out: MBC; for MIC: read-out: MIC
Description: as §1, §2, §3, §4

CCn1cc(C(=O)O)c(=O)c2ccc(-c3cc(C)nc(C)c3)cc21 [Win 35,439, 1-ethyl-1,4-dihydro-7-(2,6-dimethyl-4-pyridinyl)-4-oxo-3-quinolinecarboxylic acid]
MBC (S. aureus S-234): 0.125 µg/mL (≈ 0.388 µM)
MIC (S. aureus S-234): 0.06 µg/mL (≈ 0.186 µM)
MBC (S. aureus 24-81): 0.125 µg/mL (≈ 0.388 µM)
MIC (S. aureus 24-81): 0.06 µg/mL (≈ 0.186 µM)
MBC (S. pyogenes (89)): > 16 µg/mL
MIC (S. pyogenes (89)): 4 µg/mL (≈ 12.4 µM)
MBC (S. faecalis (8043)): 2 µg/mL (≈ 6.2 µM)
MIC (S. faecalis (8043)): 1 µg/mL (≈ 3.1 µM)
MBC (S. aureus VA16951): 0.06 µg/mL (≈ 0.186 µM)
MIC (S. aureus VA16951): 0.06 µg/mL (≈ 0.186 µM)
MBC (S. aureus 41-81): 0.25 µg/mL (≈ 0.776 µM)
MIC (S. aureus 41-81): 0.06 µg/mL (≈ 0.186 µM)
MBC (S. aureus S-500): 0.25 µg/mL (≈ 0.776 µM)
MIC (S. aureus S-500): 0.125 µg/mL (≈ 0.388 µM)
MBC (S. aureus 39881): 0.06 µg/mL (≈ 0.186 µM)
MIC (S. aureus 39881): 0.06 µg/mL (≈ 0.186 µM)
MBC (S. aureus 13-8-A): 0.125 µg/mL (≈ 0.388 µM)
MIC (S. aureus 13-8-A): 0.06 µg/mL (≈ 0.186 µM)
MBC (S. epidermidis (12228)): 0.25 µg/mL (≈ 0.776 µM)
MIC (S. epidermidis (12228)): 0.25 µg/mL (≈ 0.776 µM)
MBC (S. aureus Smith): 0.125 µg/mL (≈ 0.388 µM)
MIC (S. aureus Smith): 0.125 µg/mL (≈ 0.388 µM)
MBC (S. pneumoniae Type I): 2 µg/mL (≈ 6.2 µM)
MIC (S. pneumoniae Type I): 2 µg/mL (≈ 6.2 µM)
MBC (S. faecalis (11700)): 1 µg/mL (≈ 3.1 µM)
MIC (S. faecalis (11700)): 1 µg/mL (≈ 3.1 µM)
MBC (S. faecalis 4510): 0.5 µg/mL (≈ 1.55 µM)
MIC (S. faecalis 4510): 0.5 µg/mL (≈ 1.55 µM)
MBC (S. aureus 4-81): 0.125 µg/mL (≈ 0.388 µM)
MIC (S. aureus 4-81): 0.06 µg/mL (≈ 0.186 µM)
MBC (S. epidermidis (17917)): 0.5 µg/mL (≈ 1.55 µM)
MIC (S. epidermidis (17917)): 0.5 µg/mL (≈ 1.55 µM)
MBC (S. aureus Glorgio): 0.125 µg/mL (≈ 0.388 µM)
MIC (S. aureus Glorgio): 0.03 µg/mL (≈ 0.0931 µM)
MBC (S. aureus (25923)): 0.125 µg/mL (≈ 0.388 µM)
MIC (S. aureus (25923)): 0.125 µg/mL (≈ 0.388 µM)
MBC (S. aureus 34-81): 0.06 µg/mL (≈ 0.186 µM)
MIC (S. aureus 34-81): 0.06 µg/mL (≈ 0.186 µM)
MBC (S. epidermidis 1-3-H): 0.25 µg/mL (≈ 0.776 µM)
MIC (S. epidermidis 1-3-H): 0.25 µg/mL (≈ 0.776 µM)
MBC (S. aureus 59-81): 0.25 µg/mL (≈ 0.776 µM)
MIC (S. aureus 59-81): 0.125 µg/mL (≈ 0.388 µM)
MBC (S. aureus 10-81): 0.125 µg/mL (≈ 0.388 µM)
MIC (S. aureus 10-81): 0.125 µg/mL (≈ 0.388 µM)

CCn1cc(C(=O)O)c(=O)c2cc(F)c(-c3cc(C)nc(C)c3)cc21 [Win 52,522, 1-ethyl-6-fluoro-1,4-dihydro-7-(2,6-dimethyl-4-pyridinyl)-4-oxo-3-quinolinecarboxylic acid]
MBC (S. aureus S-234): 0.03 µg/mL (≈ 0.0881 µM)
MIC (S. aureus S-234): 0.015 µg/mL (≈ 0.0441 µM)
MBC (S. aureus 24-81): 0.03 µg/mL (≈ 0.0881 µM)
MIC (S. aureus 24-81): 0.015 µg/mL (≈ 0.0441 µM)
MBC (S. pyogenes (89)): 0.5 µg/mL (≈ 1.47 µM)
MIC (S. pyogenes (89)): 0.5 µg/mL (≈ 1.47 µM)
MBC (S. faecalis (8043)): 0.5 µg/mL (≈ 1.47 µM)
MIC (S. faecalis (8043)): 0.25 µg/mL (≈ 0.735 µM)
MBC (S. aureus VA16951): 0.015 µg/mL (≈ 0.0441 µM)
MIC (S. aureus VA16951): 0.015 µg/mL (≈ 0.0441 µM)
MBC (S. aureus 41-81): 0.015 µg/mL (≈ 0.0441 µM)
MIC (S. aureus 41-81): 0.015 µg/mL (≈ 0.0441 µM)
MBC (S. aureus S-500): 0.06 µg/mL (≈ 0.176 µM)
MIC (S. aureus S-500): 0.03 µg/mL (≈ 0.0881 µM)
MBC (S. aureus 39881): 0.03 µg/mL (≈ 0.0881 µM)
MIC (S. aureus 39881): 0.015 µg/mL (≈ 0.0441 µM)
MBC (S. aureus 13-8-A): 0.03 µg/mL (≈ 0.0881 µM)
MIC (S. aureus 13-8-A): 0.03 µg/mL (≈ 0.0881 µM)
MBC (S. epidermidis (12228)): 0.06 µg/mL (≈ 0.176 µM)
MIC (S. epidermidis (12228)): 0.06 µg/mL (≈ 0.176 µM)
MBC (S. aureus Smith): 0.03 µg/mL (≈ 0.0881 µM)
MIC (S. aureus Smith): 0.03 µg/mL (≈ 0.0881 µM)
MBC (S. pneumoniae Type I): 0.25 µg/mL (≈ 0.735 µM)
MIC (S. pneumoniae Type I): 0.25 µg/mL (≈ 0.735 µM)
MBC (S. faecalis (11700)): 0.25 µg/mL (≈ 0.735 µM)
MIC (S. faecalis (11700)): 0.25 µg/mL (≈ 0.735 µM)
MBC (S. faecalis 4510): 0.125 µg/mL (≈ 0.367 µM)
MIC (S. faecalis 4510): 0.125 µg/mL (≈ 0.367 µM)
MBC (S. aureus 4-81): 0.03 µg/mL (≈ 0.0881 µM)
MIC (S. aureus 4-81): 0.015 µg/mL (≈ 0.0441 µM)
MBC (S. epidermidis (17917)): 0.125 µg/mL (≈ 0.367 µM)
MIC (S. epidermidis (17917)): 0.06 µg/mL (≈ 0.176 µM)
MBC (S. aureus Glorgio): 0.015 µg/mL (≈ 0.0441 µM)
MIC (S. aureus Glorgio): < 0.008 µg/mL
MBC (S. aureus (25923)): 0.03 µg/mL (≈ 0.0881 µM)
MIC (S. aureus (25923)): 0.015 µg/mL (≈ 0.0441 µM)
MBC (S. aureus 34-81): 0.03 µg/mL (≈ 0.0881 µM)
MIC (S. aureus 34-81): 0.03 µg/mL (≈ 0.0881 µM)
MBC (S. epidermidis 1-3-H): 0.06 µg/mL (≈ 0.176 µM)
MIC (S. epidermidis 1-3-H): 0.06 µg/mL (≈ 0.176 µM)
MBC (S. aureus 59-81): 0.03 µg/mL (≈ 0.0881 µM)
MIC (S. aureus 59-81): 0.015 µg/mL (≈ 0.0441 µM)
MBC (S. aureus 10-81): 0.03 µg/mL (≈ 0.0881 µM)
MIC (S. aureus 10-81): 0.03 µg/mL (≈ 0.0881 µM)
